The target of the test is T1, Human complement C1s enzyme (Homo sapiens, UniProt P09871).
T1 construct: purified from human serum, Complement Technology, Inc; purchased Complement Technology, Inc; host or cells: human serum (plasma-derived native protein)
T1 sequence (P09871 438-688 limits assumed): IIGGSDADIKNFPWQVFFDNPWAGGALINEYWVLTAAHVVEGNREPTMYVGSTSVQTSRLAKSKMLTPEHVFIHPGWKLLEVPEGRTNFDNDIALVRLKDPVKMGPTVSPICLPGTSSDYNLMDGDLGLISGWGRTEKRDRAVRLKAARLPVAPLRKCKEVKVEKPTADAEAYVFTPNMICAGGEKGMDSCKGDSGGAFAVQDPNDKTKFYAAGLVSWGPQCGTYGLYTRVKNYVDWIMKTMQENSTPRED
T1 sequence (P09871 16-437 partner limits assumed): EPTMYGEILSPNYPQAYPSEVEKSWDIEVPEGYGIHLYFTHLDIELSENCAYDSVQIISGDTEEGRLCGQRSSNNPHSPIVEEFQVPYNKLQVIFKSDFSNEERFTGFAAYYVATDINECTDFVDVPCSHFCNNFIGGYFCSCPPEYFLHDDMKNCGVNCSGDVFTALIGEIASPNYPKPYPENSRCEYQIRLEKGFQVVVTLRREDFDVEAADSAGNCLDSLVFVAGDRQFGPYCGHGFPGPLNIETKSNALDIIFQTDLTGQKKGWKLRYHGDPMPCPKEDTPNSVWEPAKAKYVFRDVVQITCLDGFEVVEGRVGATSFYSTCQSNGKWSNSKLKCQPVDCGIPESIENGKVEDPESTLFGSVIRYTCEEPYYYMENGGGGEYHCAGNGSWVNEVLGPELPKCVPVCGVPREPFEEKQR
Description: Human C1s enzyme assay. It is filed as biochemical. The settings on record: human complement C1s enzyme 1.16 nM, substrate Z-L-Lys-SBzl, A405; read-out: IC50 (Stars). The method in brief: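 Serum-purified human C1s (1.16 nM final) preincubated 5 min at room temperature with compound in 50 mM Tris, 1 M NaCl, pH 7.5. Z-L-Lys-SBzl and DTNB added at 100 μM each; A405 recorded every 30 s. IC50 from nonlinear regression of reaction rates versus compound concentration.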

As for `CO[C@@H]1CO[C@H]2[C@@H]1OC[C@H]2Oc1ccc(CCCNc2cnc(-c3ccccc3)n(CC(=O)NCc3cc4cnccc4[nH]3)c2=O)cc1` [Compound 192, N-((1H-pyrrolo[3,2-c]pyridine-2-yl)methyl)-2-(5-((3-(4-(((3R,3aR,6R,6aR)-6-methoxyhexahydrofuro[3,2-b]furan-3-yl)oxy)phenyl)propyl)amino)-6-oxo-2-phenylpyrimidin-1(6H)-yl)acetamide], the IC50 is less than 100 nM. In the case of `O=C(Cn1c(-c2ccccc2)ncc(NCCCc2ccc(OC3CS(=O)(=O)C3)cc2)c1=O)NCc1cc2cnccc2[nH]1` [Compound 193, N-((1H-pyrrolo[3,2-c]pyridine-2-yl)methyl)-2-(5-((3-(4-((1,1-dioxidothietan-3-yl)oxy)phenyl)propyl)amino)-6-oxo-2-phenylpyrimidin-1(6H)-yl) acetamide], the IC50 is less than 100 nM. With `CS(=N)(=O)c1ccc(-c2ncc(NCCCc3ccccc3)c(=O)n2CC(=O)NCc2cc3cnccc3[nH]2)cc1` (centres unmarked) [Compound 200, N-((1H-pyrrolo[3,2-c]pyridine-2-yl)methyl)-2-(2-(4-(S-methylsulfonimidoyl)phenyl)-6-oxo-5-((3-phenylpropyl)amino)pyrimidin-1(6H)-yl)acetamide] the figure was less than 100 nM; with `O=C(Cn1c(-c2ccccc2)ncc(NC(=O)c2ccc3c(c2)oc2ccccc23)c1=O)NCc1cc2cnccc2[nH]1` [Compound 203, N-(1-(2-(((1H-pyrrolo[3,2-c]pyridin-2-yl)methyl)amino)-2-oxoethyl)-6-oxo-2-phenyl-1,6-dihydropyrimidin-5-yl)dibenzo [b,d]furan-3-carboxamide], less than 100 nM; with `O=C(Cn1c(-c2ccccc2)ncc(NC(=O)c2ccc3c(c2)C(F)(F)c2ccccc2-3)c1=O)NCc1cc2cnccc2[nH]1` [Compound 204, N-(1-(2-(((1H-pyrrolo[3,2-c]pyridin-2-yl)methyl)amino)-2-oxoethyl)-6-oxo-2-phenyl-1,6-dihydropyrimidin-5-yl)-9,9-difluoro-9H-fluorene-2-carbox-amide], less than 100 nM.

Regarding `O=C(Cn1c(-c2ccccc2)ncc(NC(=O)c2coc(-c3cccc(F)c3)n2)c1=O)NCc1cc2cnccc2[nH]1` [Compound 205, N-(1-(2-(((1H-pyrrolo[3,2-c]pyridine-2-yl)methyl)amino)-2-oxoethyl)-6-oxo-2-phenyl-1,6-dihydropyrimidin-5-yl)-2-(3-fluorophenyl)oxazole-4-carboxamide], the IC50 is less than 100 nM. For the compound `O=C(Cn1c(-c2ccccc2)ncc(NC(=O)c2ccc(-c3ccccc3)o2)c1=O)NCc1cc2cnccc2[nH]1` [Compound 206, N-(1-(2-(((1H-pyrrolo[3,2-c]pyridin-2-yl)methyl)amino)-2-oxoethyl)-6-oxo-2-phenyl-1,6-dihydropyrimidin-5-yl)-5-phen-ylfuran-2-carboxamide], the IC50 is less than 100 nM. As for `O=C(Cc1cc(NCCCc2ccccc2)cnc1-c1ccccc1)NCc1cc2cnccc2[nH]1` [Compound 207, N-((1H-pyrrolo[3,2-c]pyridine-2-yl)methyl)-2-(2-phenyl-5-((3-phenylpropyl)amino)146yridine-3-yl)acetamide], the IC50 is more than 1000 nM.

As to `O=C(Cn1c(-c2ccccc2)ncc(NC(=O)c2nc(-c3ccccc3)cs2)c1=O)NCc1cc2cnccc2[nH]1` [Compound 208, N-(1-(2-(((1H-pyrrolo[3,2-c]pyridin-2-yl)methyl)amino)-2-oxoethyl)-6-oxo-2-phenyl-1,6-dihydropyrimidin-5-yl)-4-phen-ylthiazole-2-carboxamide], the IC50 is less than 100 nM. With `O=C(Cn1c(-c2ccccc2)ncc(NC(=O)c2csc(-c3ccccc3)n2)c1=O)NCc1cc2cnccc2[nH]1` [Compound 209, N-(1-(2-(((1H-pyrrolo[3,2-c]pyridin-2-yl)methyl)amino)-2-oxoethyl)-6-oxo-2-phenyl-1,6-dihydropyrimidin-5-yl)-2-phen-ylthiazole-4-carboxamide], the IC50 is less than 100 nM. For `O=C(Cn1c(-c2ccccc2)ncc(NC(=O)c2cc(-c3ccccc3)cs2)c1=O)NCc1cc2cnccc2[nH]1` [Compound 210, N-(1-(2-(((1H-pyrrolo[3,2-c]pyridin-2-yl)methyl)amino)-2-oxoethyl)-6-oxo-2-phenyl-1,6-dihydropyrimidin-5-yl)-4-phen-ylthiophene-2-carboxamide] the value was less than 100 nM; for `COc1cccc(-c2nc(C(=O)Nc3cnc(-c4ccccc4)n(CC(=O)NCc4cc5cnccc5[nH]4)c3=O)co2)c1` [Compound 211, N-(1-(2-(((1H-pyrrolo[3,2-c]pyridine-2-yl)methyl)amino)-2-oxoethyl)-6-oxo-2-phenyl-1,6-dihydropyrimidin-5-yl)-2-(3-methoxyphenyl)oxazole-4-carboxamide], less than 100 nM; for `O=C(Cn1c(-c2ccccc2)ncc(Nc2ccc(F)cc2)c1=O)NCc1cc2cnccc2[nH]1` [Compound 212, N-((1H-pyrrolo[3,2-c]pyridin-2-yl)methyl)-2-(5-((4-fluoro-phenyl)amino)-6-oxo-2-phen-ylpyrimidin-1(6H)-yl)acet-amide], less than 100 nM. With `COc1ccccc1-c1ccc(C(=O)Nc2cnc(-c3ccccc3)n(CC(=O)NCc3cc4cnccc4[nH]3)c2=O)cc1` [Compound 213, N-(1-(2-(((1H-pyrrolo[3,2-c]pyridin-2-yl)methyl)amino)-2-oxoethyl)-6-oxo-2-phenyl-1,6-dihydropyrimidin-5-yl)-2′-methoxy-[1,1′-biphenyl]-4-carboxamide] the figure was less than 100 nM; with `O=C(Cn1c(-c2ccccc2)ncc(NC(=O)c2ccc(-c3ccccc3F)cc2)c1=O)NCc1cc2cnccc2[nH]1` [Compound 214, N-(1-(2-(((1H-pyrrolo[3,2-c]pyridin-2-yl)methyl)amino)-2-oxoethyl)-6-oxo-2-phenyl-1,6-dihydropyrimidin-5-yl)-2′-fluoro-[1,1′-biphenyl]-4-carboxamide], less than 100 nM. For `O=C(Cn1c(-c2ccccc2)ncc(NC(=O)c2ccc(Oc3ccccc3)s2)c1=O)NCc1cc2cnccc2[nH]1` [Compound 215, N-(1-(2-(((1H-pyrrolo[3,2-c]pyridine-2-yl)methyl)amino)-2-oxoethyl)-6-oxo-2-phenyl-1,6-dihydropyrimidin-5-yl)-5-phenoxythiophene-2-carboxamide] the value was less than 100 nM.

For `O=C(Cn1c(-c2ccc(N3CCOCC3)cc2)ncc(NCc2ccc3oc4ccccc4c3c2)c1=O)NCc1cc2cnccc2[nH]1` [Compound 216, N-((1H-pyrrolo[3,2-c]pyridin-2-yl)methyl)-2-(5-((dibenzo [b,d]furan-2-ylmethyl)amino)-2-(4-morpholinophenyl)-6-oxo-pyrimidin-1(6H)-yl)acetamide], the half-inhibitory concentration (IC50) is less than 100 nM. Regarding `COc1cccc(-c2ccc(C(=O)Nc3cnc(-c4ccccc4)n(CC(=O)NCc4cc5cnccc5[nH]4)c3=O)cc2F)c1` [Compound 217, N-(1-(2-(((1H-pyrrolo[3,2-c]pyridine-2-yl)methyl)amino)-2-oxoethyl)-6-oxo-2-phenyl-1,6-dihydropyrimidin-5-yl)-2-fluoro-3′-methoxy-[1,1′-biphenyl]-4-carboxamide], the IC50 was less than 100 nM.

Take `O=C(Cn1c(-c2ccccc2)ncc(NC(=O)c2csc(-c3ccccc3)c2)c1=O)NCc1cc2cnccc2[nH]1` [Compound 218, N-(1-(2-(((1H-pyrrolo[3,2-c]pyridin-2-yl)methyl)amino)-2-oxoethyl)-6-oxo-2-phenyl-1,6-dihydropyrimidin-5-yl)-5-phen-ylthiophene-3-carboxamide]: the 50% inhibitory concentration (IC50) is less than 100 nM. Take `O=C(Cn1c(-c2ccccc2)ncc(NC(=O)c2noc(-c3ccccc3)n2)c1=O)NCc1cc2cnccc2[nH]1` [Compound 219, N-(1-(2-(((1H-pyrrolo[3,2-c]pyridine-2-yl)methyl)amino)-2-oxoethyl)-6-oxo-2-phenyl-1,6-dihydropyrimidin-5-yl)-5-phenyl-1,2,4-oxadiazole-3-carboxamide]: the half-inhibitory concentration (IC50) is less than 100 nM. As for `O=C(Cn1c(-c2ccccc2)ncc(NC(=O)c2ccc(-c3ccccc3)s2)c1=O)Nc1nccs1` [Compound 220, N-(6-oxo-1-(2-oxo-2-(thiazol-2-ylamino)ethyl)-2-phenyl-1,6-dihydropyrimidin-5-yl)-5-phen-ylthiophene-2-carboxamide], the half-maximal inhibitory concentration (IC50) is less than 100 nM. For `O=C(Cn1c(-c2ccccc2)ncc(NC(=O)c2n[nH]c(-c3ccccc3)n2)c1=O)NCc1cc2cnccc2[nH]1` [Compound 221, N-(1-(2-(((1H-pyrrolo[3,2-c]pyridine-2-yl)methyl)amino)-2-oxoethyl)-6-oxo-2-phenyl-1,6-dihydropyrimidin-5-yl)-5-phenyl-1H-1,2,4-triazole-3-carboxamide] the value was less than 100 nM; for `O=C(Cn1c(-c2ccccc2)ncc(NC(=O)c2cccc(-c3ncco3)c2)c1=O)NCc1cc2cnccc2[nH]1` [Compound 222, N-(1-(2-(((1H-pyrrolo[3,2-c]pyridine-2-yl)methyl)amino)-2-oxoethyl)-6-oxo-2-phenyl-1,6-dihydropyrimidin-5-yl)-3-(oxazol-2-yl)benzamide], more than 1000 nM.
